Test results as given in patent US11873486B2, “Modulating dsRNA editing, sensing, and metabolism to increase tumor immunity and improve the efficacy of cancer immunotherapy and/or modulators of intratumoral interferon” (Dana-Farber Cancer Institute, Inc., priority 2017, dated 2024).
“Also recorded” adds a separate entry of the source.

B1: IFNβ: mouse interferon beta (1000 U/mL, PBL) used on B16 cells (protein, UniProt P01575 22-182, looked up)
Interferon beta: INYKQLQLQERTNIRKCQELLEQLNGKINLTYRADFKIPMEMTEKMQKSYTAFAIQEMLQNVFLVFRNNFSSTGWNETIVVRLLDELHQQTVFLKTVLEEKQEERLTWEMSSTALHLKSYYWRVQRYLKLMKYNSYAWMVVRAEIFRNFLIIRRLTRNFQN

Assays:
[1] = test system: A549 ADAR1 knockout cells; experiment: Immunoblot of interferon regulated genes in ADAR1 knockout cell lines; assay type: cell-based, human; conditions: 500 nM
Procedure: (§1) Cells were lysed in RIPA lysis buffer (Thermo Scientific) supplemented with 1× protease and phosphatase inhibitor cocktails (Roche). Protein extracts were analyzed by standard immunoblotting with the following antibodies: ADAR1 (D7E2M), MDA5 (D74E4), RIG-I (D14G6), ISG15 (22D2), USP18 (D4E7), PKR (#3072), STING (D2P2F), cGAS (D1D3G), IRF9 (D2T8M), PD-L1 (E1L3N), P-IRF3 Ser396 (4D4G), IRF3 (D6I4C), P-TBK1 Ser172 (D52C2), TBK1 (D1B4), P-EIF2α Ser51 (#9721), and EIF2α (D7D3) from Cell Signaling; P-PKR Thr446 (ab32036) from Abcam; R-actin C4 (sc-47778) from Santa Cruz. All antibodies were used at a dilution of 1:1000 except R-actin which was used at 1:4000). The following secondary antibodies were used at 1:5000 dilution: Goat anti-Rabbit IRDye 800CW (LI-COR, 926-32211) and Goat anti-Mouse IRDye […] (LI-COR, 926-68020). All immunoblots were imaged using the LI-COR digital imaging system and ImageJ.

[2] = test system: ADAR1 knockout A549 cells; experiment: Viability of ADAR1 knockout A549 cells with interferon or drug treatment; assay type: cell-based, human
Procedure: For drug treatment assays, cells were plated at a density of 3000 cells per well in a 96-well assay plate. The following day, cells were treated with ruxolitinib (INCB018424) from Selleck Chemicals; MRT67307 hydrocloride (SML0702) from Sigma-Aldrich; human interferon-alphal (#8927) from Cell Signaling; recombinant human IFN-beta 1a (mammalian) protein (114151) and recombinant human IFN-gamma protein (285-IF-100) from R&D Systems. For preincubation drug treatment experiments, cells were plated in the presence of ruxolitinib and were treated with interferon-0 and ruxolitinib the following day. Control wells were treated with dimethylsulfoxide (DMSO). Cell viability was assayed 3 or 6 days after drug treatment with CellTiter-Glo® Luminescent Cell Viability Assay kit (Promega). Viability was normalized to DMSO controls.
for interferon treatment assays, cells were plated at a low density of 3000 cells per well in a 96-well assay plate. The following day, cells were treated with human interferon-alpha 1 (Cell Signaling, #8927) or recombinant human IFN-beta 1a (mammalian) protein (PBL Assay Science, 114151). Control wells were treated with water. Cell viability was assayed 3 or 6 days after drug treatment with CellTiter-Glo© Luminescent Cell Viability Assay kit (Promega). Viability was normalized to controls. Apoptosis was assayed 3 days after interferon treatment with Caspase-Glo®3/7 Assay kit (Promega). Dose curves were obtained using least-squares nonlinear regression on a standard four-parameter logistic model using GraphPad Prism.

[3] = test system: HCC366, NCI-H1650 and NCI-H196 cell lines; experiment: Cell viability after CRISPR-Cas9 knockout of ADAR1 (CellTiter-Glo); assay type: cell-based, human; conditions: 6 days after CRISPR-Cas9 knockout of ADAR1
Description: (§2) guide RNA sequences were designed using the sgRNA designer tool on The RNAi Consortium (TRC) portal (available on the World Wide Web at portals.broadinstitute.org/gpp/public/analysis-tools/sgrnadesign). […] Guide sequences were cloned into the Cas9 expressing lentiviral vector CRISPRv2 (available on the World Wide Web at genomeengineering.org/crispr). For virus production, each CRISPRv2 vector and packaging vectors were introduced into 293T cells via calcium phosphate transfection (Clontech). Lentivirus was harvested in RPMI media supplemented with 10% FBS and filtered before addition to each cancer cell line. Infected cells were selected in 2 μg/ml puromycin or 10 μg/ml blasticidin for 7 days. Following this, protein lysates were harvested or cells were plated for proliferation assays in 96 well plates and grown in the presence of RPMI containing 10% FBS and 1 μg/ml puromycin or 5 μg/ml blasticidin. Immunoblotting confirmed decreased protein levels of each gene across the pool of infected cells. For cell viability experiments, cells were plated at a density of 3000 cells per well in a 96-well assay plate. Cell viability was assayed 3 and 6 days later with the CellTiter-Glo® Luminescent Cell Viability Assay kit (Promega). […]

[4] = test system: ADAR1; experiment: Immunoblot of ADAR1 after CRISPR-Cas9 knockout; assay type: cell-based, human; conditions: A549 cells
Procedure: as §1
guide RNA sequences were designed using the sgRNA designer tool on The RNAi Consortium (TRC) portal (available on the World Wide Web at portals.broadinstitute.org/gpp/public/analysis-tools/sgrnadesign). […] Guide sequences were cloned into the Cas9 expressing lentiviral vector CRISPRv2 (available on the World Wide Web at genomeengineering.org/crispr). For virus production, each CRISPRv2 vector and packaging vectors were introduced into 293T cells via calcium phosphate transfection (Clontech). […]

[5] = test system: A549 cells; experiment: Cell viability after CRISPR-Cas9 knockout of ADAR1, control cells; assay type: cell-based, human; conditions: 6 days after CRISPR-Cas9 knockout of ADAR1
Description: as §2

[6] = test system: ADAR; experiment: Western blot of ADAR isoforms in B16 cells; assay type: cell-based, mouse; conditions: with or without IFNβ addition
Procedure: Whole cell lysates were prepared in lysis buffer (60 mM Tris HC, 2% SDS, 10% glycerol, complete EDTA-free protease-inhibitor (Roche, Basel, Switzerland), and 500 U/mL benzonase nuclease (Novagen, Merck, Darmstadt, Germany)). Samples were boiled at 100° C. and clarified by centrifugation. Protein concentration was measured with a BCA protein assay kit (Pierce, Dallas, Texas). Fifty to one hundred and fifty micrograms of protein was loaded on 4-12% Bolt® Bis-Tris Plus gels (Life Technologies, Carlsbad, CA) in MES buffer (Life Technologies). Protein was transferred to 0.45 μm nitrocellulose membranes (Bio-Rad, Hercules, CA). Membranes were blocked in Tris-buffered saline plus 0.1% Tween 20 (TBS-T) containing 5% non-fat dry milk for 1 hour at room temperature followed by overnight incubation with primary antibody at 4° C. Membranes were washed with TBS-T and incubated with HRP-conjugated secondary antibodies for 1 hour at room temperature. […] Blots were then analyzed using ImageJ and Adobe® Photoshop® software. […]
Whole cell lysates were prepared in lysis buffer (60 mM Tris HCl, 2% SDS, 10% glycerol, complete EDTA-free protease-inhibitor (Roche), and 500 U/mL benzonase nuclease (Novagen)). […] Protein concentration was measured with a BCA protein assay kit (Pierce). […] Blots were then analyzed using ImageJ and Adobe Photoshop software. […]

[7] = test system: B16 tumor cells; experiment: IFNβ ELISA of tumor cell supernatant; assay type: cell-based, mouse; conditions: Adar-deficient B16 tumor cells
Procedure: (§3) FIG. 9 includes 3 panels, identified as panels A, B, and C, which provide exemplary mechanisms of ADAR-induced sensitivity to checkpoint blockade. […] A certain number of B16 tumor cells (50 k; Adar null or control) were stimulated in vitro with cytokine for 72 hours and the cell numbers were then counted. […] A certain number of B16 tumor cells (50 k; Adar null or control) were stimulated with cytokine in vitro, washed to remove cytokine (for IFNβ), and evaluated via IFNβ ELISA. […] A certain number of B16 tumor cells (50 k; Adar null or control) were stimulated in vitro with cytokine for 72 hours and stained for Class I MHC and PD-L1.
Cells were seeded at a density of 10,000 cells per well in a 96-well plate. Mouse interferon beta (pbl assay science) was then added. After 24 hrs of incubation at 37° C., the supernatant was aspirated from the wells to remove the mouse interferon beta. The wells were then gently washed once with media. Fresh warm media was then replaced in the wells. After 48 hrs of incubation at 37° C., the supernatant was collected, and the concentration of interferon beta was determined using The VeriKine Mouse Interferon Beta ELISA Kit (pbl assay science).

[8] = test system: B16 tumor cells; experiment: In vitro cytokine stimulation and growth inhibition assay; assay type: cell-based, mouse; conditions: Adar-deficient versus control B16 tumor cells, 72 hours
Procedure: as §3
Tumor cells were engineered as noted above and plated in DMEM+10% FBS containing the indicated combinations of cytokines: IFN (1,000 U/ml, PBL), IFN (100 ng/ml, Cell Signaling Technologies), TNF (10 ng/ml, PreproTech). For rescue/re-expression experiments, 10,000 cells were plated in 96-well plates and viable cells were enumerated after 72 hours using Cell Titer-Glo® (Promega, G7570). For all other growth inhibition assays, 50,000 cells were plated in 12-well plates and viable cells were counted after 72 hours using the Countess automated cell counting system (Thermo Fisher Scientific, C10227).

| Molecule | viability [3] | ADAR1 protein (immunoblot) [4] | viability [5] | depletion of ADAR isoforms (Western blot) [6] | other results |
| --- | --- | --- | --- | --- | --- |
| Nc1ncn([C@@H]2O[C@H](CO)[C@@H](O)[C@H]2O)c(=O)n1 [azacitidine, 5-azacytidine] |  |  |  |  | expression of MDA5 [1]: induced expression of interferon regulated gene MDA5; phosphorylation of EIF2α [1]: increased phosphorylation of EIF2α; sensitization to ADAR1 knockout [2]: sensitized A549 cells to ADAR1 knockout |
| AGATAGCCATGCTGAGCCAC (chemistry not fully specified) [ADAR1 sg2] | decreased viability | knockout of ADAR1 isoforms p150 and p110 | no effect on control cells |  |  |
| CACCGTCTACAGCCCTACCTTGCCA (antisense AAACTGGCAAGGTAGGGCTGTAGAC; listed as DNA, chemistry not fully specified) [Mouse Adar sgRNA 2, P110 and P150] |  |  |  | effectively depleted both isoforms |  |
| CACCGTCTGGATTCACAACTCCAGG (antisense AAACCCTGGAGTTGTGAATCCAGAC; listed as DNA, chemistry not fully specified) [Mouse Adar sgRNA1, P150 only] |  |  |  | effectively depleted the P150 isoform of ADAR, but not the P110 isoform of ADAR |  |
| GTGCATACACTCAAGCAGTG (chemistry not fully specified) [ADAR1 sg1] | decreased viability | knockout of ADAR1 isoforms p150 and p110 | no effect on control cells |  |  |
| B1 |  |  |  |  | IFNβ secretion after interferon stimulation [7]: make IFNβ when stimulated with IFNβ; cytokine-induced growth arrest [8]: increases IFNβ and IFNγ-induced growth arrest; also recorded: increases susceptibility to IFNβ and IFNγ |
